The subject of assay [1] is OPM-2. The assay is described as follows: Assay 2: multiple myeloma cellular efficacy, PrestoBlue cell proliferation/survival. The conditions noted are these: Homo sapiens, 96 h, OPM-2 cells, 4 days. The class given is cell-based. Here is the method: Multiple Myeloma Cellular Efficacy:
10000 OPM-2 (ACC50; DSMZ) were plated into wells of a 384 well plate (Greiner 781090). Cells were treated for 4 days with a dose range of compound or vehicle. At the end of the experiment cells were stained directly with PrestoBlue (ThermoFisher Scietific; A13262) for 2 hours at 37° C. in a humidified incubator according to manufactor's instruction. To assess the relative cell number the PrestoBlue signal was measured using either a TecanM1000Pro reader or a Tecan Sparks reader following the manufactor's instructions. Background (no cells) values were subtracted and set in relation to the vehicle control. To assess the EC50 of each compound the relative fluorescence value was plotted against the compound concentration after log transformation. Data were fitted in a nonlinear manner with a variable slope (four parameters) using graphpad prism software. Cellular efficacy of compounds was evaluated in the multiple myeloma cell line OPM-2 using the cell proliferation/survival assay PrestoBlue. EC50 values are classified as indicated below.

Assay [2] concerns A375 cells. Nature of the assay: Assay 1: A375 cells treated with S1152, S1008 and compound, immunofluorescence (sc-365823) signal. The class given is cell-based. The conditions noted are these: 1 μM S1152 + 0.5 μM S1008, one day. The protocol:
One thousand four hundred A375 cells were seeded in each well of a 384 well microplate. One day later they were treated with 1 μM S1152 (Selleckchem) in dimethyl sulfoxide, 0.5 μM S1008 (Selleckchem) and dose ranges of invention compounds for one day in Dulbecco's Modified Eagle's Medium supplemented with 10% fetal calf serum and 2 mM (2S)-2-amino-4-carbamoylbutanoic acid. Wells were incubated with 4% polyoxymethylene (Sigma Aldrich 158127) at ambient temperature. […] After one minute phosphate-buffered saline was replaced with 0.2% polyethylene glycol octylphenyl ether in phosphate-buffered saline. […] 1% aminoethanoic acid in phosphate-buffered saline was added for ten minutes at ambient temperature. […] After one hour at ambient temperature in the dark, signal in wells was measured with a Acumen Cellista. 3,8-Diamino-5-[3-(diethylmethylammonio)propyl]-6-phenylphenanthridinium diiodide-positive objects were defined in FL3 (565-600 nm) with a perimeter between 50-800 μm and a total intensity of 10000-1000000 FLU. Signal in FL2 (500-530 nm) was measured in defined objects. A normalized ratio of total In FL2 over total In FL3 staining was log transformed. A non-linear regression (variable slope, 4 parameters) was used to calculate EC50 values using GraphPad Prism (Version 7.0d).
In an alternative procedure, assay 1 has been affected by changing the counteratain. […] Cells were incubated with 0.5 μg/ml 2-(4-Amidinophenyl)-6-indolecarbamidine dihydrochloride, 4′,6-Diamidino-2-phenylindole dihydrochloride (Sigma D9542) in phosphate-buffered saline for at least 30 minutes at ambient temperature in the dark. A Celigo Imager (Nexcelom) was used to acquire images in the blue and green channel. The blue channel was used as a mask to define the area for the green signal. The average integrated intensity of the green signal was normalized and a non-linear regression (variable slope, 4 parameter) was used to calculate the EC50 values using GraphPad Prism (Version 8.4)

The text below walks through data of patent US12478624B2, “Heterocyclic derivatives, pharmaceutical compositions and their use in the treatment or amelioration of cancer” (Tolremo Therapeutics AG, priority 2019, dated 2025).

One may read the EC50 as the concentration at which the effect is half-maximal. For `CC(=O)N1C[C@H](c2nc(Nc3cncc(C)c3)cc(-c3cccnc3)n2)CC[C@@H]1C` (racemic) [Compound 00096, (+/−)-cis-1-(2-methyl-5-(4-((5-methylpyridin-3-yl)amino)-6-(pyridin-3-yl)pyrimidin-2-yl)piperidin-1-yl)ethan-1-one], the EC50 in assay [1] was 200 to 1000 nM; in assay [2], below 200 nM.

In the case of `COc1cncc(-c2cc(Nc3cccc(F)c3)nc([C@H]3CC[C@@H](C)N(C(C)=O)C3)n2)c1` [Compound 00003], the EC50 in assay [1] is above 10000 nM.

With `CC(=O)Nc1cc(F)cc(Nc2cc(-c3cccnc3)nc([C@@H]3CC[C@H](C)N(C(C)=O)C3)n2)c1` [Compound 00047, N-(3-((2-((3R,6S)-1-acetyl-6-methylpiperidin-3-yl)-6-(pyridin-3-yl)pyrimidin-4-yl)amino)-5-fluorophenyl)acetamide], the EC50 in assay [1] and in assay [2] was below 200 nM throughout.

`CC(=O)N1C[C@H](c2nc(Nc3cccc4c3cnn4C)cc(-c3cnccn3)n2)CC[C@@H]1C` [Compound 00049, 1-((2S,5R)-2-methyl-5-(4-((1-methyl-1H-indazol-4-yl)amino)-6-(pyrazin-2-yl)pyrimidin-2-yl)piperidin-1-yl)ethan-1-one]: the half-maximal effective concentration (EC50) in assay [1] and in assay [2] was below 200 nM in each case.

Turning to `CC(=O)N1C[C@H](c2nc(Nc3cccc4nn(C)cc34)cc(-c3cnccn3)n2)CC[C@@H]1C` [Compound 00050, 1-((2S,5R)-2-methyl-5-(4-((2-methyl-2/−/−indazol-4-yl)amino)-6-(pyrazin-2-yl)pyrimidin-2-yl)piperidin-1-yl)ethan-1-one], the EC50 in assay [1] was 200 to 1000 nM; in assay [2], below 200 nM.

For `CC(=O)N1C[C@H](c2nc(Nc3cccc4c3CC(=O)N4)cc(-c3cccnc3)n2)CC[C@@H]1C` [Compound 00051, 4-((2-((3R,6S)-1-acetyl-6-methylpiperidin-3-yl)-6-(pyridin-3-yl)pyrimidin-4-yl)amino)indolin-2-], the EC50 was in the range of 1000 to 10000 nM in assay [1] and 200 to 1000 nM in assay [2].

On to `CC(=O)N1C[C@H](c2nc(Nc3cccc(-c4ncn(C)n4)c3)cc(-c3cccnc3)n2)CC[C@@H]1C` [Compound 00052, 1-((2S,5R)-2-methyl-5-(4-((3-(1-methyl-1H-1,2,4-triazol-3-yl)phenyl)amino)-6-(pyridin-3-yl)pyrimidin-2-yl)piperidin-1-yl)ethan-1-one], for which the EC50 in assay [1] and in assay [2] was below 200 nM in each case.

For the compound `CC(=O)Nc1cccc(Nc2cc(-c3cccnc3)nc([C@@H]3CC[C@H](C)N(C(C)=O)C3)n2)c1` [Compound 00054, N-(3-((2-((3R,6S)-1-acetyl-6-methylpiperidin-3-yl)-6-(pyridin-3-yl)pyrimidin-4-yl)amino)phenyl)acetamide], the 50% effective concentration (EC50) in assay [1] and in assay [2] was below 200 nM throughout.

Regarding `CC(=O)N1C[C@H](c2nc(Nc3cc(-c4cnn(C)c4)cc(C(F)F)c3)cc(-c3cnccn3)n2)CC[C@@H]1C` [Compound 00055, 1-((2S,5R)-5-(4-((3-(difluoromethyl)-5-(1-methyl-1Hpyrazol-4-yl)phenyl)amino)-6-(pyrazin-2-yl)pyrimidin-2-yl)-2-methylpiperidin-1-yl)ethan-1-one], the EC50 in assay [1] and in assay [2] was below 200 nM in each case.

As for `CC(=O)N1C[C@H](c2nc(Nc3cccc4c3cnn4C)cc(-c3cccnc3)n2)CC[C@@H]1C` [Compound 00056, 1-((2S,5R)-2-methyl-5-(4-((1-methyl-1H-indazol-4-yl)amino)-6-(pyridin-3-yl)pyrimidin-2-yl)piperidin-1-yl)ethan-1-one], the EC50 in assay [1] and in assay [2] was below 200 nM throughout.

Turning to `CC(=O)N1C[C@H](c2nc(Nc3cc(-c4cnn(C)c4)cc(C(F)F)c3)cc(-c3cccnc3)n2)CC[C@@H]1C` [Compound 00057, 1-((2S,5R)-5-(4-((3-(difluoromethyl)-5-(1-methyl-1H-pyrazol-4-yl)phenyl)amino)-6-(pyridin-3-yl)pyrimidin-2-yl)-2-methylpiperidin-1-yl)ethan-1-one], the EC50 in assay [1] and in assay [2] was below 200 nM each time.

For the compound `CC(=O)N1C[C@H](c2nc(Nc3cccc(C(C)(F)F)c3)cc(-c3cccnc3)n2)CC[C@@H]1C` [Compound 00058, 1-((2S,5R)-5-(4-((3-(1,1-difluoroethyl)phenyl)amino)-6-(pyridin-3-yl)pyrimidin-2-yl)-2-methylpiperidin-1-yl)ethan-1-one], the EC50 was 200 to 1000 nM in assay [1] and below 200 nM in assay [2].

In the case of `CC(=O)Nc1cc(Nc2cc(-c3cnccn3)nc([C@@H]3CC[C@H](C)N(C(C)=O)C3)n2)cc(C(F)F)c1` [Compound 00059, N-(3-((2-((3R,6S)-1-acetyl-6-methylpiperidin-3-yl)-6-(pyrazin-2-yl)pyrimidin-4-yl)amino)-5-(difluoromethyl)phenyl)acetamide], the concentration for a half-maximal effect (EC50) in assay [1] and in assay [2] was below 200 nM in each case.

Turning to `CC(=O)Nc1cc(Nc2cc(-c3cccnc3)nc([C@@H]3CC[C@H](C)N(C(C)=O)C3)n2)cc(C(F)F)c1` [Compound 00060, N-(3-((2-((3R,6S)-1-acetyl-6-methylpiperidin-3-yl)-6-(pyridin-3-yl)pyrimidin-4-yl)amino)-5-(difluoromethyl)phenyl)acetamide], the EC50 was below 200 nM in assay [1] and 200 to 1000 nM in assay [2].

As to `CC(=O)N1C[C@H](c2nc(Nc3cccc(-c4nnn(C)n4)c3)cc(-c3cccnc3)n2)CC[C@@H]1C` [Compound 00062, 1-((2S,5R)-2-methyl-5-(4-((3-(2-methyl-2H-tetrazol-5-yl)phenyl)amino)-6-(pyridin-3-yl)pyrimidin-2-yl)piperidin-1-yl)ethan-1-one], the EC50 in assay [1] and in assay [2] was below 200 nM throughout.

With `CC(=O)N1C[C@H](c2nc(Nc3cccc(-n4cnnn4)c3)cc(-c3cccnc3)n2)CC[C@@H]1C` [Compound 00063, 1-((2S,5R)-5-(4-((3-(1H-tetrazol-1-yl)phenyl)amino)-6-(pyridin-3-yl)pyrimidin-2-yl)-2-methylpiperidin-1-yl)ethan-1-one], the EC50 in assay [1] was 200 to 1000 nM; in assay [2], below 200 nM.

For `CC(=O)N1C[C@H](c2nc(Nc3cccc(-c4noc(C)n4)c3)cc(-c3cnccn3)n2)CC[C@@H]1C` [Compound 00064, 1-((2S,5R)-2-methyl-5-(4-((3-(5-methyl-1,2,4-oxadiazol-3-yl)phenyl)amino)-6-(pyrazin-2-yl)pyrimidin-2-yl)piperidin-1-yl)ethan-1-one], the EC50 in assay [1] and in assay [2] was below 200 nM throughout.

For the compound `COc1cc(F)cc(Nc2cc(-c3cnccn3)nc([C@@H]3CC[C@H](C)N(C(C)=O)C3)n2)c1` [Compound 00067, 1-((2S,5R)-5-(4-((3-fluoro-5-methoxyphenyl)amino)-6-(pyrazin-2-yl)pyrimidin-2-yl)-2-methylpiperidin-1-yl)ethan-1-one], the EC50 in assay [1] and in assay [2] was below 200 nM each time.

In assay [1], `CC(=O)N1C[C@H](c2nc(Nc3cc(F)cc(-c4cnn(C)c4)c3)cc(-c3cncc(N4C[C@@H]5C[C@H]4CO5)c3)n2)CC[C@@H]1C` [Compound 00090, 1-((2S,5R)-5-(4-(5-((1S,4S)-2-oxa-5-azabicyclo-[2.2.1]heptan-5-yl)pyridin-3-yl)-6-((3-fluoro-5-(1-methyl-1H-pyrazol-4-yl)phenyl)amino)pyrimidin-2-yl)-2-methylpiperidin-1-yl)ethan-1-one] registered an EC50 below 200 nM.

`CC(=O)N1C[C@H](c2nc(Nc3cncc(N4CCCC4=O)c3)cc(-c3cccnc3)n2)CC[C@@H]1C` [Compound 00135, 1-(5-((2-((3R,6S)-1-acetyl-6-methylpiperidin-3-yl)-6-(pyridin-3-yl)pyrimidin-4-yl)amino)pyridin-3-yl)pyrrolidin-2-one]: the EC50 in assay [2] is 1000 to 10000 nM.

Take `CC(=O)N1C[C@H](c2nc(Nc3cc(F)cc(-c4nnco4)c3)cc(-c3cccnc3)n2)CC[C@@H]1C` [Compound 00166, 1-((2S,5R)-5-(4-((3-fluoro-5-(1,3,4-oxadiazol-2-yl)phenyl)amino)-6-(pyridin-3-yl)pyrimidin-2-yl)-2-methylpiperidin-1-yl)ethan-1-one]: the EC50 in assay [2] was below 200 nM.
